Assay results: patent US20210169992A1, “COMPOSITIONS AND METHODS FOR INHIBITING THE PRODUCTION OR ACTIVITY OF D-2HYDROXYGLUTARATE IN SUBJECTS AFFLICTED WITH CANCER” (President and Fellows of Harvard College, priority 2019, published 2021)
“Also recorded” adds a separate entry of the source.

Columns and labels:
Type in all cases: cell-based
T cells [1] = experiment: Mitochondrial respiration / electron transport chain function in T cells; settings: D-2HG treated T cells, stress conditions
Excerpt: (§1) H2O2 and NAC were used as positive and negative controls, respectively. *P<0.05, **P<0.01, ***P<0.001, ****P<0.0001 (Two-way ANOVA).

T cells [2] = experiment: Effector function and antigen specific killing assay, OT-1 T cells against B16 OVA+ or OVA− tumor cells
Excerpt: Data were normalized to cell number. […] Data were normalized to cell number.

GL261 cells = experiment: Mitochondrial membrane potential by TMRE staining in GL261 cells; settings: cancer cells (GL261); FIG. 3
Method: Mitochondrial membrane potential was measured by TMRE staining in control, D-2HG, and L-2HG treated GL261 cells.

T cells [3] = experiment: T cell proliferation upon activation by Cell Trace Violet staining; settings: different concentrations of D-2HG, FIG. 6
T cells [4] = experiment: ROS levels following 24 hour treatment; settings: FIG. 7
Excerpt: as §1

T cells [5] = experiment: Mitochondrial membrane potential by TMRE staining in T cells; settings: FIG. 4, FIG. 7
Excerpt: as §1

D2HGDH = biological target: T1, D2HGDH (Homo sapiens, UniProt Q8N465); experiment: Isotope tracing of uniformly carbon labeled D-2HG into the TCA cycle; settings: FIG. 8
T1 construct: endogenous in cells
T1 sequence (Q8N465 14-521): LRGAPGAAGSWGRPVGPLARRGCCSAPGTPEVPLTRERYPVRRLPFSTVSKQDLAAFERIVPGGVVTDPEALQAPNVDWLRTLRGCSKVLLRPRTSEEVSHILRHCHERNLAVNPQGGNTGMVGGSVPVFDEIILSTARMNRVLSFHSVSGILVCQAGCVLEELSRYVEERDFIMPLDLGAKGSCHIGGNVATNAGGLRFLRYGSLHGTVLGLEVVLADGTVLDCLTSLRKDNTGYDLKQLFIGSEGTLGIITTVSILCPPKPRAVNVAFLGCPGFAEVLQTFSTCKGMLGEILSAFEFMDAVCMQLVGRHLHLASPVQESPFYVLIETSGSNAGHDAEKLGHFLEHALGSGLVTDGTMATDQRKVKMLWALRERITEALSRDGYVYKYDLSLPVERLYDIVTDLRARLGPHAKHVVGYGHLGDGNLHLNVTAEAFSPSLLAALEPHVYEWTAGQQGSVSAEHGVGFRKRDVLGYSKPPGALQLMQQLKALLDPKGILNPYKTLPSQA

T cells [6] = experiment: TCA cycle metabolite levels after 48 hour treatment upon T cell activation; settings: FIG. 2
Method: A 2 day treatment of 1 mM NMN was used as a positive control. *P<0.05, **P<0.01 (Student's t test and two-way ANOVA).

T cells [7] = experiment: D-2HG uptake in T cells
Excerpt: as §1

T cells [8] = experiment: Metabolite profiling during time course of T cell activation with and without D-2HG; settings: T cells activated with vs without D-2HG; FIG. 1
Excerpt: Log 2 fold change was normalized to the average levels of control group.

T cells [9] = experiment: Apoptosis by Annexin and PI staining; settings: after 24 hours of treatment; FIG. 6

Structure (SMILES) | ETC function (T cells [1]) | expression of effector markers (T cells [2]; D-2HG treated T cells) | antitumor activity / killing by treated T cells (T cells [2]; T cells activated in presence of D-2HG, FIG. 9) | mitochondrial membrane potential (TMRE) (GL261 cells) | T cell proliferation (T cells [3]) | ROS production (T cells [4]) | mitochondrial membrane potential (TMRE) (T cells [5]) | metabolism of D-2HG (D2HGDH) | TCA cycle metabolite levels (T cells [6]) | uptake by T cells (T cells [7]) | effect on T cell metabolism upon activation (T cells [8]) | apoptosis (T cells [9])
O=C(O)CC[C@@H](O)C(=O)O [D-2HG, D-2hydroxyglutarate] | ETC function is impaired under stress conditions | increased expression of effector markers | reduced killing; also recorded: results in the generation of effector T cells with inferior antitumor activity | mild effect on mitochondrial membrane potential | slows down proliferation | increased ROS production | causes mitochondrial hyperpolarization | is metabolized by D2HGDH | causes accumulation of TCA cycle metabolites | is taken up by T cells | causes broad changes in T cell metabolism upon activation | promotes apoptosis
N#CC(C#N)=NNc1ccc(OC(F)(F)F)cc1 [FCCP, reference compound] |  |  |  |  |  |  | decouples membrane potential in both control and D-2HG treated conditions |  |  |  |  | 
